# Experimental data: PubChem BioAssay AID1259427 (Fisher Drug Discovery Resource Center, 2018)
# “And” between values parts separate entries of the source, which are not always exact repeats. Equal entries are not always repeated. The source made the active and inactive calls.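 Rule for the calls: active = EC50 at or below a set limit, with no effect in the paired counter-screen assay; inactive = the rest.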
# Target: Aedes aegypti neuropeptide Y-like receptor 7 (NPYLR7)
# Experiment: agonists of mosquito NPYLR7 receptor, confirmation, cell-based, Aedes aegypti, hit validation, mosquito biting behavior (AID 1259427);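 note: potency of agonists that activate the receptor and raise the calcium signal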
# Conditions: HEK293T NPYLR7/Galpha15/GCaMP6s, calcium fluorescence
row,Structure (SMILES),EC50
1,O=C(CN1C(=O)SC(=Cc2ccc(N3CCCCCC3)o2)C1=O)N1CCCCCC1,> 20 µM (inactive)
2,NS(=O)(=O)c1ccc(NC(NC(=O)c2ccco2)C(=O)c2ccc(Cl)cc2)cc1 (stereo not drawn),> 20 µM (inactive)
3,COc1ccc(OC)c(CCNc2nc3cnc(-c4cc(OC)c(OC)c(OC)c4)cc3n2C)c1,12.7 µM
4,C=C(C)Cn1c(C(=O)N2CCN(C(=O)CCC(=O)OCC)C(C)C2)cc2ccoc21 (stereo not drawn),6.05 µM
5,O=C1c2cccc3c(NCCO)ccc(c23)C(=O)N1CCO,< 0.039 µM (inactive)
6,Nc1c(S(=O)(=O)O)cc2c3c(cccc13)C(=O)N(CCO)C2=O,inactive
7,COc1ccc(/C=C2\Oc3c(ccc4c3CN(Cc3ccncc3)CO4)C2=O)cc1,inactive
8,CN1C(=CC=C2C(=O)Oc3ccccc3C2=O)C(C)(C)c2ccccc21,inactive
9,CN(Cc1ccccc1)c1cc(Oc2cccc(Cl)c2)ncn1,> 20 µM (inactive)
10,N#CC(=Cc1c(F)c(F)c(F)c(F)c1F)c1ccccn1,> 20 µM (inactive)
11,O=C(O)c1csc(CSc2nnc(-c3ccncc3)n2-c2cccc(C(F)(F)F)c2)n1,> 20 µM (inactive)
12,CNC(=O)c1cnc(/C=C/c2csc(-c3ccsc3)n2)[nH]c1=O,> 20 µM (inactive)
13,CCN(CC)CC[n+]1c(C)cc(C=C2Sc3ccccc3N2C)cc1C,> 20 µM (inactive)
14,Cc1cccc(N2C(=O)NC(=O)/C(=C/c3cn(C)c4ccccc34)C2=O)c1,> 20 µM (inactive)
15,O=C(O)c1[nH]ncc1CN1CCc2onc(-c3ccc(C(F)(F)F)cc3)c2C1,> 20 µM (inactive)
16,O=C1c2ccccc2-c2nn(CN3CCN(c4ccccc4)CC3)c3cccc1c23,> 20 µM (inactive)
17,CCCC[n+]1c(C)cc(C=C2Sc3ccccc3N2C)cc1C,> 20 µM (inactive)
18,O=c1[nH]c(SCCO)nc2sc3c(c12)CCCC3,> 20 µM (inactive)
19,Oc1ccc(-c2onc3ccc(Cl)cc23)cc1,> 20 µM (inactive)
20,Cc1nc2ncccc2cc1C(=O)N1CCC2(CCNC(=O)CC2)CC1,> 20 µM (inactive)
21,COc1ccc(C(=O)N(Cc2ccccc2)C2CCC(NC(=O)C3CCN(C(=O)c4ccccc4Cl)CC3)CC2)cc1 (stereo not drawn),18 µM
22,Cc1ccc(C2=NN(C(=O)CN3CCN(C)CC3)C(c3ccccc3Cl)C2)cc1 (stereo not drawn),> 20 µM (inactive)
23,COc1cc(C=C(C#N)S(=O)(=O)c2cc(Br)ccc2Br)ccc1O,> 20 µM (inactive)
24,COc1ccc(-n2ccnc2-c2ccc(C#CC(C)(C)O)cc2)cn1,> 20 µM (inactive)
25,Cc1ccc(Nc2nc(Nc3cccc(F)c3)nc3nccnc23)c(C)c1,> 20 µM (inactive)

row,Structure (SMILES),EC50
1,CCn1c(=O)c2c(nc(/C=C/c3ccc(OC)c(OC)c3)n2C)n(CC)c1=O,> 20 µM (inactive)
2,CCOC(=O)c1nc2ccccc2nc1N1CCN(C(=O)N2CCOCC2)CC1,> 20 µM (inactive)
3,O=C(O)CN1C(=O)/C(=C/c2cc(Br)c(O)c(Br)c2)SC1=S,inactive
4,CCCc1[nH]n(-c2ccc(Cl)cc2)c(=O)c1/C=C1\NC(=O)N(Cc2ccc(C)cc2)C1=O,> 20 µM (inactive)
5,Nc1ccc2c3c(cccc13)C(=O)NC2=O,inactive
6,O=c1oc2c(CN3CCN(CCO)CC3)c(O)ccc2cc1-c1nc2ccccc2s1,< 0.039 µM (inactive)
7,Cc1cc(C)c2cc3c(cc2n1)CCN3CC(O)CO (stereo not drawn),inactive
8,CCCc1nn2c(N)c(C=C3C=C(Cl)C(=O)C(Cl)=C3)c(=O)nc2s1,> 20 µM (inactive)
9,CCOC=C(C#N)c1nc(C)cs1,inactive
10,CCOc1cc2c(cc1C=C(C#N)C#N)OC(C)C2 (stereo not drawn),> 20 µM (inactive)
11,NC(=NCCCCCCN=C(N)N=C(N)Nc1ccc(Cl)cc1)N=C(N)Nc1ccc(Cl)cc1,2.66 µM
12,CCCc1ccccc1N1C(=O)CSC1c1ccc(NC(=O)CCl)cc1 (stereo not drawn),> 20 µM (inactive)
13,O=C(Nc1cccc(-c2nnco2)c1)C1CCCCC1,> 20 µM (inactive)
14,COc1cc(C=C2N=C(c3ccc4c(c3)OCO4)OC2=O)cc2c1OCCO2,> 20 µM (inactive)
15,CN1CCc2c(sc(NC(=O)Cc3ccccc3)c2-c2nc3ccccc3s2)C1,> 20 µM (inactive)
16,CCN1C(=Cc2ccc3cc(C)ccc3[n+]2CC)Sc2ccccc21,inactive
17,COc1ccc(-c2cnn(CCC(N)=O)c2)c(C)c1,> 20 µM (inactive)
18,Cc1ccc(-c2nc3nc(N)n(C)c(=O)c3[nH]c2=O)cc1,> 20 µM (inactive)
19,CC[n+]1c(/C=C/C=C2/N(C)c3ccccc3C2(C)C)sc2ccccc21,> 20 µM (inactive)
20,COc1ccc(N2CCN(c3cc(C(F)(F)F)nc(SCc4cccc(C(=O)NCc5ccccn5)c4)n3)CC2)cc1,> 20 µM (inactive)
21,CCCCNC(=O)CCCCCNC(N)=O,> 20 µM (inactive)
22,Cc1ccc(N2C(=O)NC(=O)/C(=C\c3cccs3)C2=O)cc1,> 20 µM (inactive)
23,CC(=NNc1ncnc2sc(C)c(C)c12)c1ccccn1,inactive
24,CCN1CC(=Cc2cc(C)n(C3CC3)c2C)C(=O)C(=Cc2cc(C)n(C3CC3)c2C)C1,> 20 µM (inactive)
25,CN1C(=S)N(C2CCCCC2)C(=O)/C1=C\c1ccc2c(c1)OCO2,> 20 µM (inactive)

row,Structure (SMILES),EC50
1,COc1ccc(C2=NN(C(=O)CN3CCOCC3)C(c3nc4ccccc4[nH]3)C2)cc1 (stereo not drawn),> 20 µM (inactive)
2,CCOc1ccc(C(=O)Nc2sc3c(c2-c2nc4ccccc4s2)CCN(C)C3)cc1,> 20 µM (inactive)
3,CC1CCCCC1OCCNC(=O)C1(c2ccc(F)cc2)CCC1 (stereo not drawn),> 20 µM (inactive)
4,CCCn1c2c(c(=O)n(C)c1=O)C(=O)C(=Cc1ccc(N(C)C)cc1)N2,inactive
5,N#Cc1cc(C(=O)c2cc(Cl)cc(Cl)c2O)cn(-c2nccs2)c1=O,14.4 µM
6,Nc1nc(Cl)nc2c1ncn2[C@@H]1O[C@H](CO)[C@@H](O)[C@H]1O,inactive
7,O=C(O)CN1C(=O)/C(=C\c2cc([N+](=O)[O-])cc(Br)c2O)SC1=S,inactive
8,O=C1SC(Nc2ccc(Br)cc2)C(=O)N1c1ccccc1 (stereo not drawn),> 20 µM (inactive)
9,CCOC(=O)N1CCC(NC(=O)c2sc3nc4c(c(C(F)(F)F)c3c2N)CC(C)CC4)CC1 (stereo not drawn),> 20 µM (inactive)
10,Cc1ccc(CNC(=O)NC(c2ccc3c(c2)OCCCO3)C(C)C)cc1F (stereo not drawn),> 20 µM (inactive)
11,CC(C)c1nc(NC(=O)c2[nH]ncc2Br)n(C)n1,inactive
12,CCOC(=O)C1CCCN(c2nc3nonc3nc2N2CCSCC2)C1 (stereo not drawn),> 20 µM (inactive)
13,COc1cccc(-n2c(O)c(C=Nc3cc(OC)ccc3OC)c3ccccc3c2=O)c1,> 20 µM (inactive)
14,C=CCN1C(=O)C(Cc2ccc(OC)cc2)S/C1=N/N=C\c1cccs1 (stereo not drawn),> 20 µM (inactive)
15,COc1ccc(N2C(=O)/C(=C\c3ccc[nH]3)N(C)C2=S)c([N+](=O)[O-])c1,> 20 µM (inactive)
16,COc1cc(/C=C2\SC(=S)N(c3cccc(C(=O)O)c3)C2=O)ccc1O,> 20 µM (inactive)
17,COc1ccc(Cl)cc1Nc1nnc(-c2cc3c(ccc4ccccc43)oc2=O)s1,> 20 µM (inactive)
18,CCOC(=O)N1CCN(c2ccc(/C=C(\C#N)c3nc4ccccc4[nH]3)o2)CC1,> 20 µM (inactive)
19,CCN(CC)c1ccc(/C=C2\SC(=S)N(CC(=O)O)C2=O)c(O)c1,inactive
20,N#CC1C(=N)Oc2cc(O)ccc2C1c1ccccc1I (stereo not drawn),inactive
21,O=C1/C(=C/c2cc3ccccc3o2)Oc2c1ccc(O)c2CN1CCN(CCO)CC1,inactive
22,O=C(O)c1csc(CSc2nnc(Cc3ccccc3)n2-c2cccc(C(F)(F)F)c2)n1,> 20 µM (inactive)
23,CCN(CC)C1=CC2=CC(=C(C#N)C#N)CCC2CC1 (stereo not drawn),< 0.039 µM (inactive)
24,N#C/C(=C/c1ccc(N2CCCCCC2)o1)c1ccc(F)cc1,> 20 µM (inactive)
25,Nc1nc(Cl)nc2c1ncn2[C@@H]1O[C@H](COP(=O)(O)OP(=O)(O)OP(=O)(O)O)[C@H](O)C1O (stereo partly drawn),< 0.039 µM (inactive)

row,Structure (SMILES),EC50
1,O=C(CC(c1cccc([N+](=O)[O-])c1)c1c[nH]c2ccccc12)NC1CC1 (stereo not drawn),> 20 µM (inactive)
2,FC(F)(F)c1ccc(-c2nc3ccc(Cl)cn3c2NCc2ccccc2)cc1,> 20 µM (inactive)
3,Cc1ccc(CN(C(=O)c2cc3cc(Cl)ccc3[nH]2)C(C)C)o1,> 20 µM (inactive)
4,COc1ccc(CCN2COc3ccc4c(c3C2)O/C(=C\c2cccnc2)C4=O)cc1,> 20 µM (inactive)
5,O=C1Nc2ccccc2C1C=NN1CCOCC1 (stereo not drawn),> 20 µM (inactive)
6,O=C1NC(c2ccc3c(c2)OCO3)C(C(=O)c2ccccc2)C(O)(C(F)(F)F)N1 (stereo not drawn),> 20 µM (inactive)
7,OCCN(CCO)c1nc(N2CCCCC2)c2nc(N(CCO)CCO)nc(N3CCCCC3)c2n1,inactive
8,N#Cc1cc2cc(Cl)cc(Cl)c2oc1=O,inactive
9,CCN1CCN(C(=O)c2ccc(Cn3ccsc3=NC(=O)c3ccc(OC)c(OC)c3)o2)CC1,14.3 µM
10,O=C1/C(=C/c2cc3ccccc3o2)Oc2cc(O)ccc21,> 20 µM (inactive)
11,O=c1cc(C(F)(F)F)c2ccc(O)cc2o1,inactive
12,Cc1cccc(C2=N/C(=C\c3cc4cc5c6c(c4oc3=O)CCCN6CCC5)C(=O)O2)c1,inactive
13,CC(C)NC[C@H](O)c1ccc(O)c(O)c1,< 39 nM (inactive) and > 20 µM (inactive)
14,CCOC(=O)N1CCN(c2ccc(/C=C(\C#N)c3nc4ccccc4n3C)o2)CC1,inactive
15,COc1ccccc1Oc1nc2ccccn2c(=O)c1/C=C(\C#N)c1nc2ccccc2s1,> 20 µM (inactive)
16,CCC(CO)[n+]1c(C)cc(C=C2Sc3ccccc3N2CC)cc1C (stereo not drawn),inactive
17,CCCCC(CC)CN=C(N)NC(N)=NCCCCCCN=C(N)NC(N)=NCC(CC)CCCC (stereo not drawn),17.3 µM
18,CC(C)OC(=O)C(C(=O)C(F)(F)F)c1cc(NS(=O)(=O)c2ccc(Cl)cc2)ccc1O (stereo not drawn),> 20 µM (inactive)
19,O=C1C(=Cc2ccc(OC(F)F)cc2OC(F)F)Oc2cc(O)ccc21,> 20 µM (inactive)
20,Nc1ccc2c3c(cccc13)C(=O)N(c1ccccc1)C2=O,inactive
21,CCOc1cc(/C=C(\C#N)c2nc3ncc(Br)cc3[nH]2)ccc1O,inactive
22,O=C1NC(=NS(=O)(=O)c2ccccc2)SC1=Cc1cc([N+](=O)[O-])ccc1O,> 20 µM (inactive)
23,COc1cc(/C=C2\SC(=S)N(C(C)C(=O)O)C2=O)ccc1O (stereo not drawn),inactive
